In one test the test system is MV-4-11 cells. The test is described as follows: AML cell viability, CellTiter-Glo, MV-4-11 cells. As to conditions: Homo sapiens. In kind it is cell-based. Here is the method: MV4-11 cells were obtained from ATCC and grown in IMDM supplemented with 10% FBS. The cells were maintained at 37° C. under 5% CO2. […] The luminescence was normalized to that of DMSO-treated samples. IC50 values were obtained using three-parameter non-linear regressions using Prism (GraphPad). […] Cell viability was measured using the CellTiter-Glo reagent after 44 hours of treatment. […] MV4-11 cells were obtained from ATCC and grown in IMDM supplemented with 10% FBS. The cells were maintained at 37° C. under 5% CO2. […] Cell viability was measured using the CellTiter-Glo reagent after 44 hours of treatment.

For the next test, the target named is GSPT1 (Homo sapiens, UniProt P15170+Q96SW2). The test is described as follows: cell-based. As to conditions: read-out: GSPT1 degradation classification.
GSPT1, sequence (P15170 whole entry): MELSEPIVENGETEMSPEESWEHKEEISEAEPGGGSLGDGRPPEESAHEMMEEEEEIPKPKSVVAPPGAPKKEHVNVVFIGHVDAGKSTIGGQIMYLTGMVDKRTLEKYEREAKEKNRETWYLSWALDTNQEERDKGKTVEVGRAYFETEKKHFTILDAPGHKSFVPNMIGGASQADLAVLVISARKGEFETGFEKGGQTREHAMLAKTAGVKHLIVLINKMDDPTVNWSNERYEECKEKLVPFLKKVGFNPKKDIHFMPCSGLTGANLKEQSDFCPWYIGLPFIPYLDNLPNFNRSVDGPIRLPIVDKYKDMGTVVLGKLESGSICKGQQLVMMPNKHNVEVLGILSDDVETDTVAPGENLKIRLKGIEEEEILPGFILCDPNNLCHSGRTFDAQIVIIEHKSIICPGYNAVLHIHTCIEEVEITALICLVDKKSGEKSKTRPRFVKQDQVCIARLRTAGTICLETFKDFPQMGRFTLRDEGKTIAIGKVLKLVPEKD
GSPT1, sequence (Q96SW2 whole entry): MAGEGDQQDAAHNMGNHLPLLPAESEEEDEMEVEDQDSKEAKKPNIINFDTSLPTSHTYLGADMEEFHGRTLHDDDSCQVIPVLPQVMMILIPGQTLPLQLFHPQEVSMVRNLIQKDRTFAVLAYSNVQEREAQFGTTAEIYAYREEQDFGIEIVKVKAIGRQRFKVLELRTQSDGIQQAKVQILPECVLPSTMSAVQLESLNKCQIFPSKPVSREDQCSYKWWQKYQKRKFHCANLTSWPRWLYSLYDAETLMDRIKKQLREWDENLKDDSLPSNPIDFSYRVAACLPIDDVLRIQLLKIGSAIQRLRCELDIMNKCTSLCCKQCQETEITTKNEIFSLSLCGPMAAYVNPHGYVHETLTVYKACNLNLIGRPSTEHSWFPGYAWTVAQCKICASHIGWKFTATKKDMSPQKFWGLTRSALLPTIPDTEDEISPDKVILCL
GSPT1, sequence (Q16531 whole entry partner): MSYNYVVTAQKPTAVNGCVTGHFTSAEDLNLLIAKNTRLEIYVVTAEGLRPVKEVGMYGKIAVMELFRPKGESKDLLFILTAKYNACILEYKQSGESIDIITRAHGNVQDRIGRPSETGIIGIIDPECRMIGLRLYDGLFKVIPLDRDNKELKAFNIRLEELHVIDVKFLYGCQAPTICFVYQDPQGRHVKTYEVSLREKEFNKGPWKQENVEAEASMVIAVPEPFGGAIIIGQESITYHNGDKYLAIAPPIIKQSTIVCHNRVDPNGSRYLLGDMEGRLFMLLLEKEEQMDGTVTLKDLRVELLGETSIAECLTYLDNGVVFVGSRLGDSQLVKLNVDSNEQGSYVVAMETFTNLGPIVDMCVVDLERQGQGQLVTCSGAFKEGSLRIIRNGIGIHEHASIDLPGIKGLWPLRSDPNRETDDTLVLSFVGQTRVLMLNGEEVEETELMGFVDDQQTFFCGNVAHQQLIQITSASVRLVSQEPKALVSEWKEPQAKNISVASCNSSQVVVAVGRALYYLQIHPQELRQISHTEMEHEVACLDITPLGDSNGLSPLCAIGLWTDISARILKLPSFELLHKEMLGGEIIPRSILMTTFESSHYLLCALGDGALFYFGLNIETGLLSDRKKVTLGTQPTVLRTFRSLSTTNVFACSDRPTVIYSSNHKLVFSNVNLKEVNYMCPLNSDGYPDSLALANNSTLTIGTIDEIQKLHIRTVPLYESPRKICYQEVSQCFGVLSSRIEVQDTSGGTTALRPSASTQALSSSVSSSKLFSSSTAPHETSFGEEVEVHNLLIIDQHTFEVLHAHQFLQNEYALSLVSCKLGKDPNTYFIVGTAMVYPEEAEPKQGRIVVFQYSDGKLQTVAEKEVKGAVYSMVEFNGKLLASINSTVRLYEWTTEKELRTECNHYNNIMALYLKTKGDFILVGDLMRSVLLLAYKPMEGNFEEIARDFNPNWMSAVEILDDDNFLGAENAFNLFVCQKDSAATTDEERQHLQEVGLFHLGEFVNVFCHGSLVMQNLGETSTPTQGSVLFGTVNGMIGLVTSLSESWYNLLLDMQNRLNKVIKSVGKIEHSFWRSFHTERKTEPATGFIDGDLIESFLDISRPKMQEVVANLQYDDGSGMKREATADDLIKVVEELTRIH
Where [1] appears, read: MV4-11, MV-4-11 cells, CellTiter-Glo, 44 hours of treatment, TABLE 1, read-out: Cell viability classification.
The mark [2] stands for this setting: MV4-11, 44 h, read-out: Cell viability classification.
Setting [3] is: MV4-11, MV-4-11 cells, 1 μM, 6 hours, Western Blot, % reduction of GSPT1 compared to DMSO, normalized to GAPDH.
Where [4] appears, read: MV4-11, MV-4-11 cells, CellTiter-Glo, 44 hours of treatment, TABLE 5, read-out: Cell viability classification (MV-4-11).

pIC50: −log10 of the molar value. Read-outs that look alike come from different tables or passages of the source.

For `O=C1CC[C@H](N2Cc3cc(C(=O)Nc4cncc5ccccc45)ccc3C2=O)C(=O)N1` (stereo in doubt) [Example 2, 2-(2,6-dioxopiperidin-3-yl)-N-(isoquinolin-4-yl)-1-oxoisoindoline-5-carboxamide], in the test on MV-4-11 cells (setting [1]), the pIC50 was 6.00 to 7.00. On to `O=C1CCC(N2Cc3cc(C(=O)N[C@H]4CCc5ccccc54)ccc3C2=O)C(=O)N1` (stereo partly drawn) [Example 1, N—((S)-2,3-dihydro-1H-inden-1-yl)-2-(2,6-dioxopiperidin-3-yl)-1-oxoisoindoline-5-carboxamide], for which the inhibition at 1 µM at GSPT1 (MV4-11, 6 h) is under 50%. The pIC50 with MV-4-11 cells (setting [2]) is over 7.00. As to `O=C1CCC(N2Cc3cc(C(=O)Nc4csc5ccccc45)ccc3C2=O)C(=O)N1` (stereo not drawn) [Example 8, N-(benzo[b]thiophen-3-yl)-2-(2,6-dioxopiperidin-3-yl)-1-oxoisoindoline-5-carboxamide], the inhibition at 1 µM at GSPT1 (MV4-11, 6 h) is over 75%. In addition, the pIC50 in the test with MV-4-11 cells (setting [1]) was over 7.00. Regarding `O=C1CCC(N2Cc3cc(C(=O)N4CCc5ccccc54)ccc3C2=O)C(=O)N1` (stereo not drawn) [Example 11, 3-(5-(indoline-1-carbonyl)-1-oxoisoindolin-2-yl)piperidine-2,6-dione], the inhibition at 1 µM at GSPT1 (MV4-11, 6 h) was over 75%. In addition, the pIC50 in the test on MV-4-11 cells (setting [2]) is over 7.00. As to `O=C1CCC(N2Cc3cc(C(=O)N4Cc5ccccc5C4)ccc3C2=O)C(=O)N1` (stereo not drawn) [Example 12, 3-(5-(isoindoline-2-carbonyl)-1-oxoisoindolin-2-yl)piperidine-2,6-dione], the pIC50 in the test on MV-4-11 cells (setting [1]) is over 7.00. With `O=C1CCC(N2Cc3cc(C(=O)N4Cc5cccc(C(F)(F)F)c5C4)ccc3C2=O)C(=O)N1` (stereo not drawn) [Example 21, 3-(1-oxo-5-(4-(trifluoromethyl)isoindoline-2-carbonyl)isoindolin-2-yl)piperidine-2,6-dione], on GSPT1 (setting [3]), the inhibition at 1 µM was over 75%. Moreover, in the test with MV-4-11 cells (setting [1]), the pIC50 is over 7.00.

As to `O=C1CCC(N2Cc3cc(C(=O)N4Cc5ccc(C(F)(F)F)cc5C4)ccc3C2=O)C(=O)N1` (stereo not drawn) [Example 22, 3-(1-oxo-5-(5-(trifluoromethyl)isoindoline-2-carbonyl)isoindolin-2-yl)piperidine-2,6-dione], on GSPT1 (setting [3]), the inhibition at 1 µM is over 75%. For the same compound, in the test on MV-4-11 cells (setting [1]), the pIC50 was over 7.00.

Consider `O=C1CCC(N2Cc3cc(C(=O)N4CCc5ncccc54)ccc3C2=O)C(=O)N1` (stereo not drawn) [Example 28, 3-(5-(2,3-dihydro-1H-pyrrolo[3,2-b]pyridine-1-carbonyl)-1-oxoisoindolin-2-yl)piperidine-2,6-dione], for which, at GSPT1 (setting [3]), the inhibition at 1 µM lay within 50 to 75%. The pIC50 with MV-4-11 cells (setting [1]) was over 7.00.

Regarding `O=C1CCC(N2Cc3cc(C(=O)N4Cc5ccncc5C4)ccc3C2=O)C(=O)N1` (stereo not drawn) [Example 31, 3-(5-(2,3-dihydro-1H-pyrrolo[3,4-c]pyridine-2-carbonyl)-1-oxoisoindolin-2-yl)piperidine-2,6-dione], the inhibition at 1 µM on GSPT1 (setting [3]) lay in the range of 50 to 75%. The pIC50 with MV-4-11 cells (setting [1]) is 6.00 to 7.00. Consider `O=C1CCC(N2Cc3cc(C(=O)N4CCc5ccc(F)cc54)ccc3C2=O)C(=O)N1` (stereo not drawn) [Example 32, 3-(5-(6-fluoroindoline-1-carbonyl)-1-oxoisoindolin-2-yl)piperidine-2,6-dione], for which the inhibition at 1 µM on GSPT1 (MV4-11, 6 h) is over 75%. The pIC50 in the test on MV-4-11 cells (setting [1]) was over 7.00. Regarding `O=C1CCC(N2Cc3cc(C(=O)N4CCc5cc(Cl)cc(F)c54)ccc3C2=O)C(=O)N1` (stereo not drawn) [Example 56, 3-(5-(5-chloro-7-fluoroindoline-1-carbonyl)-1-oxoisoindolin-2-yl)piperidine-2,6-dione], the inhibition at 1 µM on GSPT1 (setting [3]) lay in the range of 50 to 75%. Also, in the test with MV-4-11 cells (setting [1]), the pIC50 is 6.00 to 7.00. For `O=C1CCC(N2Cc3cc(C(=O)N4CCc5cc(F)cc(F)c54)ccc3C2=O)C(=O)N1` (stereo not drawn) [Example 57, 3-(5-(5,7-difluoroindoline-1-carbonyl)-1-oxoisoindolin-2-yl)piperidine-2,6-dione], the inhibition at 1 µM on GSPT1 (MV4-11, 6 h) was in the range of 50 to 75%. In the test on MV-4-11 cells (setting [1]), the pIC50 was 6.00 to 7.00.

Take `O=C1CCC(N2Cc3cc(C(=O)Nc4ccsc4)ccc3C2=O)C(=O)N1` (stereo not drawn) [Example 58, 2-(2,6-dioxopiperidin-3-yl)-1-oxo-N-(thiophen-3-yl)isoindoline-5-carboxamide]: the inhibition at 1 µM on GSPT1 (MV4-11, 6 h) was over 75%. Further, in the test with MV-4-11 cells (setting [1]), the pIC50 is over 7.00. Regarding `O=C1CCC(N2Cc3cc(C(=O)Nc4csc5cccnc45)ccc3C2=O)C(=O)N1` (stereo not drawn) [Example 59, 2-(2,6-dioxopiperidin-3-yl)-1-oxo-N-(thieno[3,2-b]pyridin-3-yl)isoindoline-5-carboxamide], at GSPT1 (setting [3]), the inhibition at 1 µM was over 75%. Also, the pIC50 with MV-4-11 cells (setting [1]) was over 7.00. The corresponding values for `O=C1CCC(N2Cc3cc(C(=O)Nc4csc5ccncc45)ccc3C2=O)C(=O)N1` (stereo not drawn) [Example 60] are 50 to 75% and 6.00 to 7.00. The corresponding values for `O=C1CCC(N2Cc3cc(C(=O)Nc4csc5cnccc45)ccc3C2=O)C(=O)N1` (stereo not drawn) [Example 61, 2-(2,6-dioxopiperidin-3-yl)-1-oxo-N-(thieno[2,3-c]pyridin-3-yl)isoindoline-5-carboxamide] are over 75% and over 7.00.

Take `O=C1CCC(N2Cc3cc(C(=O)Nc4csc5ncccc45)ccc3C2=O)C(=O)N1` (stereo not drawn) [Example 62, 2-(2,6-dioxopiperidin-3-yl)-1-oxo-N-(thieno[2,3-b]pyridin-3-yl)isoindoline-5-carboxamide]: the inhibition at 1 µM at GSPT1 (setting [3]) was under 50%. For the same compound, the pIC50 in the test with MV-4-11 cells (setting [1]) was under 6.00. As to `COc1cc(F)c2c(c1)CCN2C(=O)c1ccc2c(c1)CN(C1CCC(=O)NC1=O)C2=O` (stereo not drawn) [Example 64, 3-(5-(7-fluoro-5-methoxyindoline-1-carbonyl)-1-oxoisoindolin-2-yl)piperidine-2,6-dione], the pIC50 with MV-4-11 cells (MV4-11, TABLE 2, MV-4-11 cells assumed, CellTiter-Glo, 44 hours, read-out: Cell viability classification) is over 7.00. On to `O=C1CCC(N2Cc3cc(C(=O)N4CCc5c(F)cccc54)ccc3C2=O)C(=O)N1` (stereo not drawn) [Example 74, 3-(5-(4-fluoroindoline-1-carbonyl)-1-oxoisoindolin-2-yl)piperidine-2,6-dione], for which, at GSPT1 (MV4-11, 6 h), the inhibition at 1 µM is over 75%. In addition, in the test on MV-4-11 cells (setting [1]), the pIC50 was over 7.00. `O=C1CCC(N2Cc3cc(C(=O)N4CCc5cc(F)ccc54)ccc3C2=O)C(=O)N1` (stereo not drawn) [Example 75, 3-(5-(5-fluoroindoline-1-carbonyl)-1-oxoisoindolin-2-yl)piperidine-2,6-dione]: at GSPT1 (MV4-11, 6 h), the inhibition at 1 µM was over 75%. For the same compound, the pIC50 in the test with MV-4-11 cells (setting [1]) was over 7.00. Turning to `O=C1CCC(N2Cc3cc(C(=O)N4CCc5cccc(F)c54)ccc3C2=O)C(=O)N1` (stereo not drawn) [Example 76, 3-(5-(7-fluoroindoline-1-carbonyl)-1-oxoisoindolin-2-yl)piperidine-2,6-dione], the inhibition at 1 µM at GSPT1 (MV4-11, 6 h) was under 50%. Moreover, the pIC50 with MV-4-11 cells (setting [1]) is 6.00 to 7.00. For `O=C1CCC(N2Cc3cc(C(=O)N4CCc5c4cccc5C(F)(F)F)ccc3C2=O)C(=O)N1` (stereo not drawn) [Example 77, 3-(1-oxo-5-(4-(trifluoromethyl)indoline-1-carbonyl)isoindolin-2-yl)piperidine-2,6-dione] the same measures were over 75% and over 7.00. For `O=C1CCC(N2Cc3cc(C(=O)N4CCc5cc(C(F)(F)F)ccc54)ccc3C2=O)C(=O)N1` (stereo not drawn) [Example 78, 3-(1-oxo-5-(5-(trifluoromethyl)indoline-1-carbonyl)isoindolin-2-yl)piperidine-2,6-dione] the same measures were 50 to 75% and 6.00 to 7.00. Take `O=C1CCN(c2ccc3ccc(C(=O)N4CCc5cccc(F)c54)cc3c2)C(=O)N1` [Example 118, 1-(7-(7-fluoroindoline-1-carbonyl)naphthalen-2-yl)dihydropyrimidine-2,4(1H,3H)-dione]: in the test with MV-4-11 cells (setting [4]), the pIC50 was under 6.00. `O=C1CCN(c2ccc3ccc(C(=O)N4CCc5cc(F)ccc54)cc3c2)C(=O)N1` [Example 119, 1-(7-(5-fluoroindoline-1-carbonyl)naphthalen-2-yl)dihydropyrimidine-2,4(1H,3H)-dione]: the pIC50 in the test with MV-4-11 cells (setting [4]) is under 6.00. In the case of `O=C1CCN(c2ccc3ccc(C(=O)N4CCc5ccccc54)cc3c2)C(=O)N1` [Example 120, 1-(7-(indoline-1-carbonyl)naphthalen-2-yl)dihydropyrimidine-2,4(1H,3H)-dione], the pIC50 with MV-4-11 cells (setting [4]) is under 6.00.

For `O=C1CCN(c2ccc3ccc(C(=O)N4Cc5ccccc5C4)cc3c2)C(=O)N1` [Example 125, 1-(7-(isoindoline-2-carbonyl)naphthalen-2-yl)dihydropyrimidine-2,4(1H,3H)-dione], in the test with MV-4-11 cells (setting [4]), the pIC50 was 6.00 to 7.00.

Turning to `O=C1CCN(c2ccc3ccc(C(=O)N4CCc5c(F)cccc54)cc3c2)C(=O)N1` [Example 126, 1-(7-(4-fluoroindoline-1-carbonyl)naphthalen-2-yl)dihydropyrimidine-2,4(1H,3H)-dione], in the test with MV-4-11 cells (setting [4]), the pIC50 was under 6.00.

`O=C1CCN(c2ccc3ccc(C(=O)N4Cc5cccc(F)c5C4)cc3c2)C(=O)N1` [Example 127, 1-(7-(4-fluoroisoindoline-2-carbonyl)naphthalen-2-yl)dihydropyrimidine-2,4(1H,3H)-dione]: the pIC50 with MV-4-11 cells (setting [4]) was 6.00 to 7.00. On to `O=C1CCN(c2ccc3ccc(C(=O)N4CCCc5ccccc54)cc3c2)C(=O)N1` [Example 128, 1-(7-(1,2,3,4-tetrahydroquinoline-1-carbonyl)naphthalen-2-yl)dihydropyrimidine-2,4(1H,3H)-dione], for which the pIC50 in the test on MV-4-11 cells (setting [4]) is under 6.00. Still for that read-out and setting: the same measure for `O=C1CCN(c2ccc3ccc(C(=O)N4CCc5ccccc5C4)cc3c2)C(=O)N1` [Example 129, 1-(7-(1,2,3,4-tetrahydroisoquinoline-2-carbonyl)naphthalen-2-yl)dihydropyrimidine-2,4(1H,3H)-dione]: under 6.00.

These data come from patent US20260285872A1, “COMPOUNDS AND METHODS FOR DEGRADING GSPT1” (priority 2023, published 2026).
